What is called inhibition is the share of the control response that was lost under treatment. A word on the Ki: it is the equilibrium dissociation constant of an inhibitor or competing ligand from its target. One may read the IC50 as the concentration that gives 50% inhibition. The term CLint scaled denotes the capacity of the preparation to metabolise the compound, expressed as a volume cleared per time. Low readings indicate slow turnover, high ones rapid turnover. Usually half-life stands for how long it takes for the measured level to halve. Lower therefore signals fast loss. One may read the microsomal CLint as the rate of metabolic loss divided by the concentration. A low value points to greater metabolic stability. For orientation: EC50 means the concentration needed to bring the measured effect to its halfway point.

In one series the test system is CYP3A. Kind of series: P450 inhibition, human liver microsomal CYP3A. Format: in vitro ADME. To be noted: human liver microsomes, read-out: 3A %Inhibition. (Liver microsomes are vesicles of endoplasmic reticulum, rich in cytochrome P450 enzymes.)
The next series concerns the target T1, CYP1A2 (Homo sapiens, UniProt P05177).
T1 sequence (P05177 1-516): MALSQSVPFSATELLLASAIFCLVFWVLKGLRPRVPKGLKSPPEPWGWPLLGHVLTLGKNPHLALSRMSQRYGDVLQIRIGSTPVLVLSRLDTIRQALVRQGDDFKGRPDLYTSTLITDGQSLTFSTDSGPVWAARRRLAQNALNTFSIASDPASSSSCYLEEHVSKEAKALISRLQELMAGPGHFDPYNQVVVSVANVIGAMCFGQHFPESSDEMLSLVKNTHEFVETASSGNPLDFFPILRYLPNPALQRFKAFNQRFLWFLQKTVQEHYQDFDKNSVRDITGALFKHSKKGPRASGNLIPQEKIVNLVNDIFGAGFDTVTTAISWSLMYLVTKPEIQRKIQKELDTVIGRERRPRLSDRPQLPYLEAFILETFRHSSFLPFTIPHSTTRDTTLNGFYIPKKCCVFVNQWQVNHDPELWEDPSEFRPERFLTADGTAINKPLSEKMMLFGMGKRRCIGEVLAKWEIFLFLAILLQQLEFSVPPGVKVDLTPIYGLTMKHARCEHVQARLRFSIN
Kind of series: P450 inhibition, human liver microsomal CYP1A2. To be noted: microsomes.

Another series has as its target mu-opioid receptor (MOR). Conditions: N-substituted 5-phenylmorphans; read-out: affinity at MOR Ki; cited from earlier work.
Series [1] concerns cloned human mu-opioid receptor. Conditions: [35S]GTPγS functional assay; cited from earlier work. On the technique in general: GTPγS is a poorly hydrolysed GTP analogue; its binding reports G protein activation.
A further series deals with CYP2C9 (Homo sapiens, UniProt P11712). Description: P450 inhibition, human liver microsomal CYP2C9. To be noted: microsomes.
Chain of CYP2C9 (P11712 whole entry): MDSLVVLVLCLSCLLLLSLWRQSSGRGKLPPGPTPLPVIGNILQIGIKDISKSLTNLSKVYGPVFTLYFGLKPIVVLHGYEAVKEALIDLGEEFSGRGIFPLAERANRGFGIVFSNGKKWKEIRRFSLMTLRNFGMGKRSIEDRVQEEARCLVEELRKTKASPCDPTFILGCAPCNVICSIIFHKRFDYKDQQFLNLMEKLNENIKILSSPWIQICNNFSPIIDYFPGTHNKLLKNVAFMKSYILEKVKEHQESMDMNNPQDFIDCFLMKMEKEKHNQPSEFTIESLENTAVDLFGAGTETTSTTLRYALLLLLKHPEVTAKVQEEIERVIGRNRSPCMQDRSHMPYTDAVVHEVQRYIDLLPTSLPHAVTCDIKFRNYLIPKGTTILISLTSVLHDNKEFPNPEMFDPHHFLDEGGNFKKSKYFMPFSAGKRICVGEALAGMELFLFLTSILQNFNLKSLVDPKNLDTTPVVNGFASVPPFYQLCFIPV
The target of a further series is CYP2C19 (Homo sapiens, UniProt P33261). Description: in vitro. To be noted: microsomes.
Chain of CYP2C19 (P33261 whole entry): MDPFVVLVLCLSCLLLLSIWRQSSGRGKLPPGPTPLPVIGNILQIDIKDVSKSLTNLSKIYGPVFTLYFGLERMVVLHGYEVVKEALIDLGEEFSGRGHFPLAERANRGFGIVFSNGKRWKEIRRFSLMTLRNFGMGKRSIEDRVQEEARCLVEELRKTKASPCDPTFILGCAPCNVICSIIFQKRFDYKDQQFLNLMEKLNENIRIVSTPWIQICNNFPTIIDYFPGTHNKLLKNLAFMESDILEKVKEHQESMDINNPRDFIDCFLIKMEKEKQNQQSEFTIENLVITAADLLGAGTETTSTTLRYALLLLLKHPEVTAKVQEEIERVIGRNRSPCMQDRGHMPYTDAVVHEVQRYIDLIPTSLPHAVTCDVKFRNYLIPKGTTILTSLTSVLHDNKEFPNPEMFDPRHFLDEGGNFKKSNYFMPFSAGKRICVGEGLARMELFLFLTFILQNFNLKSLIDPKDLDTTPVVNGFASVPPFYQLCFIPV
A short description of series [2]: Microsomal metabolic stability, mouse liver microsomes. To be noted: for Remaining (NCF = 60 min): MLM 0.5, no co-factor (no NADPH); for Remaining (T = 60 min): MLM 0.5, with NADPH.
Series [3] is described as follows: Microsomal metabolic stability, human liver microsomes.
Series [4] has as its target T2, human δ-opioid receptor (OPRD1) (Homo sapiens, UniProt P41143). Kind of series: cell-based.
For a further series, the target named is T3, μ-opioid receptor (MOR) (Rattus norvegicus, UniProt P33535).
T3 construct: All assay tubes contained 100 μL homogenate suspension; from tissue; host or cells: whole rat brain excluding cerebellum, membrane homogenate
T3 sequence (P33535 whole entry): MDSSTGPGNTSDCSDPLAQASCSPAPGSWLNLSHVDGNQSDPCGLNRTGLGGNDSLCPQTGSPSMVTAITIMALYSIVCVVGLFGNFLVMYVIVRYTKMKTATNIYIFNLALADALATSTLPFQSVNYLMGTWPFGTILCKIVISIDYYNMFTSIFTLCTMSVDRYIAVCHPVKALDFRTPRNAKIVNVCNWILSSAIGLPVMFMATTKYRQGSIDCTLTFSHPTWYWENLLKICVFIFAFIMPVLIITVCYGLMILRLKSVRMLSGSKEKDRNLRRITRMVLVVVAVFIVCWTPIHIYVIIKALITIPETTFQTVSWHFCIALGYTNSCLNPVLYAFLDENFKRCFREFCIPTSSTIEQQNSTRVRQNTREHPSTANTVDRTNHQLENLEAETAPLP
Description: Opioid receptor binding, MOR ([3H]DAMGO), rat brain homogenate. Conditions: [3H]DAMGO, whole rat brains excluding cerebellum; read-out: MOR Binding (Ki ± SEM).

Series [5] in a line: in vitro. To be noted: human, microsomes.
Series [6] deals with T4, human κ-opioid receptor (OPRK1) (Homo sapiens, UniProt P41145). Description: Forskolin-induced cAMP accumulation assay, KOR antagonist mode. Conditions: for KOR Antagonist %Imax ± SEM: versus EC90 of U50488H, normalized to nor-BNI. A general note: cAMP levels reflect the balance of adenylyl cyclase and phosphodiesterase activity.
T4 sequence (P41145 whole entry): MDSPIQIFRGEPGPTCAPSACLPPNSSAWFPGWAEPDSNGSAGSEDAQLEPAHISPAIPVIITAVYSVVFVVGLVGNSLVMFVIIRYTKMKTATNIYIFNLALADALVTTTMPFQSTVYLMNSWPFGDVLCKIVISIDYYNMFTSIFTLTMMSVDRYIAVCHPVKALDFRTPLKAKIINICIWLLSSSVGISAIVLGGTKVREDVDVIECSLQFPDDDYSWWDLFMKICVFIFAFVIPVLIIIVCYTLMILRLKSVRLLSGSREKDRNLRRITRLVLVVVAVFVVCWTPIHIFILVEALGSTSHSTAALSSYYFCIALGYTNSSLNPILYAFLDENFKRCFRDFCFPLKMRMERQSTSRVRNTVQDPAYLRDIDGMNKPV
A further series concerns the target T5, κ-opioid receptor (KOR) (Rattus norvegicus, UniProt P34975).
T5 construct: All assay tubes contained 100 μL homogenate suspension; from tissue; host or cells: whole rat brain excluding cerebellum, membrane homogenate
Description: Opioid receptor binding, KOR ([3H]U69,593), rat brain homogenate. Conditions: for Ki: [3H]U69,593, whole rat brains excluding cerebellum, read-out: KOR Binding (Ki ± SEM); for fold lower affinity at KOR than at MOR: from Ki of Table 1.

Series [7] has as its target T2, human δ-opioid receptor (OPRD1). To be noted: versus EC50 of SNC80; normalized to naltrexone.
The target in the next series is T6, δ-opioid receptor (DOR) (Rattus norvegicus, UniProt P33533).
T6 construct: All assay tubes contained 100 μL homogenate suspension; from tissue; host or cells: whole rat brain excluding cerebellum, membrane homogenate
T6 sequence (P33533 whole entry): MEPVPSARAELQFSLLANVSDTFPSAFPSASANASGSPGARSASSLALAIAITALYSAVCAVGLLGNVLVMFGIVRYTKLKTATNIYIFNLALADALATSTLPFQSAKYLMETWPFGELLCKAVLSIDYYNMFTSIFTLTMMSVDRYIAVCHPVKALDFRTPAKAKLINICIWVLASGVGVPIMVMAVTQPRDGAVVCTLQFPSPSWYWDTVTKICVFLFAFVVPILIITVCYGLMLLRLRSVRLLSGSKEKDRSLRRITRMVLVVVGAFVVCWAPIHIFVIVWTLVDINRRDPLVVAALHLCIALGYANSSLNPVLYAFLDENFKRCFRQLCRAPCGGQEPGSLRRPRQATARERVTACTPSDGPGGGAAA
Kind of series: Opioid receptor binding, DOR ([3H]DADLE), rat brain homogenate. Conditions: for Ki: [3H]DADLE, whole rat brains excluding cerebellum, read-out: DOR Binding (Ki ± SEM); for fold lower affinity at DOR than at MOR: from Ki of Table 1.

For series [8], the target named is T4, human κ-opioid receptor (OPRK1). Kind of series: Forskolin-induced cAMP accumulation assay, KOR agonist mode.
Series [9] in a line: in vitro. Conditions: mouse, microsomes.
Series [10] has as its target T2, human δ-opioid receptor (OPRD1). Description: Forskolin-induced cAMP accumulation assay, DOR agonist mode.
The next series has as its target T7, CYP2D6 (Homo sapiens, UniProt P10635).
T7 construct: selected human liver microsomal cytochrome P450 isozymes (CYP1A2, CYP2C9, CYP2C19, CYP2D6, and CYP3A); from tissue; host or cells: human liver microsomes
Description: P450 inhibition, human liver microsomal CYP2D6. Format: in vitro ADME.

Where [11] appears, read: forskolin-induced cAMP accumulation assay.

T2 sequence (P41143 whole entry): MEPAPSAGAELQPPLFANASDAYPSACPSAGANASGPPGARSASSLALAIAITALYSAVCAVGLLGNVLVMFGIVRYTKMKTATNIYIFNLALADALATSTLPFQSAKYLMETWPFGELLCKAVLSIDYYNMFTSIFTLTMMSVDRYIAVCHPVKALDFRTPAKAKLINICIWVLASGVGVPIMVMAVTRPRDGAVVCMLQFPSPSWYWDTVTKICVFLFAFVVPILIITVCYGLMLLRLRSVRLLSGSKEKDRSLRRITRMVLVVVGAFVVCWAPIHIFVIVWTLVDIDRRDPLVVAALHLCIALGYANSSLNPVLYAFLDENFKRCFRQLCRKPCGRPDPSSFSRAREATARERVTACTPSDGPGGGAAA
T5 sequence (P34975 whole entry): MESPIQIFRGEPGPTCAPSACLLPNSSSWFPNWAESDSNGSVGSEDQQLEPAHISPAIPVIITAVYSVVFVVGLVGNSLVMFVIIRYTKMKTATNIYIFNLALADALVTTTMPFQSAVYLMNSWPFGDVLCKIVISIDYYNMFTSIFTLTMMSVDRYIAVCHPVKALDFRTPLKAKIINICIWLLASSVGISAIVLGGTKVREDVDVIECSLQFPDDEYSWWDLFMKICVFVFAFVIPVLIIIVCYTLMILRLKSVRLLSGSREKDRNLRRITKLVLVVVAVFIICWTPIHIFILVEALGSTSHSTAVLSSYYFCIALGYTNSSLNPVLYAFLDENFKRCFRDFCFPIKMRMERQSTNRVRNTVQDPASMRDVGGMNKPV
T7 sequence (P10635 whole entry): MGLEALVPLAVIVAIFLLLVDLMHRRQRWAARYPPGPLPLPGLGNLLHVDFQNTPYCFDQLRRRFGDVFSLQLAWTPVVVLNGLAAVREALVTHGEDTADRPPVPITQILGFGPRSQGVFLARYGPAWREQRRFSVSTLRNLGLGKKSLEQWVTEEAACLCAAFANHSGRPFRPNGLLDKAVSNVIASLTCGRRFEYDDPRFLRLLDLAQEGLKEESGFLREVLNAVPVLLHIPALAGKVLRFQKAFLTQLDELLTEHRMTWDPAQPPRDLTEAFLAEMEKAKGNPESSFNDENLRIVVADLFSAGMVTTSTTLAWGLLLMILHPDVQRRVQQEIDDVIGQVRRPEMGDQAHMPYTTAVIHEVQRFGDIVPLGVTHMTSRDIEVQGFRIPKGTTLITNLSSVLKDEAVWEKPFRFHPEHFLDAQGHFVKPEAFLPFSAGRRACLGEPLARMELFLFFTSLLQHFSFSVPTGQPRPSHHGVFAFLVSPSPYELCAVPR

Turning to `CC(=O)N1CCN(c2ccc(OCC3COC(Cn4ccnc4)(c4ccc(Cl)cc4Cl)O3)cc2)CC1` (centres unmarked) [Ketoconazole, reference compound], the inhibition at 10 µM in the series on CYP3A was 98.8%.

The compound `O=c1cc(-c2ccccc2)oc2c1ccc1ccccc12` [α-Naphthoflavone, reference compound] had an inhibition at 10 µM at CYP1A2 of 88.3%.

As to `Oc1cccc(C23CCCC(C2)N(CC2CC2c2ccccc2)CC3)c1` (single isomer, unassigned; (+)) [(+)-2], the Ki at mu-opioid receptor (MOR) was 3 nM. The “mu-opioid antagonist activity Ke” value in series [1] is listed as 0.17 nM.

In the case of `O=C1CC[C@@]2(O)[C@H]3Cc4ccc(O)c5c4[C@@]2(CCN3CC2CC2)[C@H]1O5` [Naltrexone], the inhibition at 10 µM against CYP2C9 and at CYP2C19 was 0% each time. Moreover, the “Remaining (NCF = 60 min)” value is 84.3% in series [2] and 99.8% in series [3] (human, microsomes, 1 h). Also, the “Remaining (T = 60 min)” value in [2] worked out at 48.1%; in series [3] (human, microsomes, 1 h) it was 97.1%.

Compound `Nc1ccc(S(=O)(=O)Nc2ccnn2-c2ccccc2)cc1` [Sulfaphenazole] gave an inhibition at 10 µM against CYP2C9 of 85.2%.

On to `Oc1cccc2c1O[C@H]1CN(C[C@H]3C[C@@H]3c3ccccc3)[C@H]3CCC[C@@]21C3` [(+)-17, (3S,6aR,11aR)-2-(((1S,2S)-2-Phenylcyclopropyl)methyl)-1,3,4,5,6,11a-hexahydro-2H-3,6a-methanobenzofuro[2,3-c]azocin-10-ol], for which the values for the IC50 in [4] and in series [6] were 487 ± 157 nM and 206 ± 63.2 nM, respectively. Besides, the Ki at μ-opioid receptor (MOR) was determined as 11.9 ± 1.6 nM; on κ-opioid receptor (KOR) it was 100 ± 10 nM; at δ-opioid receptor (DOR), 49.4 ± 5.1 nM. Moreover, the inhibition at 10 µM on CYP2C9 is 36.6%; at CYP2C19 it was 46.6%; in the series on CYP3A it was 24.7%; against CYP1A2, 6.8%; on CYP2D6 (human, human liver microsomes, read-out: 2D6 %Inhibition), above 50%. For the same compound, the “Remaining (NCF = 60 min)” value stood at 94.4% in series [2] and 98.5% in [3] (HLM 0.5, no co-factor (no NADPH)). Further, the “Remaining (T = 60 min)” value in series [2] was 0.2%; in [3] (HLM 0.5, with NADPH), 13.0%. For the same compound, the CLint scaled in the series “in vitro [5]” amounted to 62 mL/min/kg; in the series “in vitro [9]”, 801 mL/min/kg. Besides, the half-life in the series “in vitro [5]” amounted to 20.1 min; in “in vitro [9]”, 6.9 min. Moreover, the figures for the microsomal CLint in “in vitro [5]” and in the series “in vitro [9]” were 68.9 µL/min/mg and 202 µL/min/mg, respectively. Moreover, in series [6], the “KOR Antagonist %Imax ± SEM” value was 106.1 ± 5.5%. Further, at κ-opioid receptor (KOR), the “fold lower affinity at KOR than at MOR” value is “about 10 fold”. Also, the “DOR Antagonist %Imax ± SEM” value in series [7] is 160.9 ± 4.0%. For the same compound, the “fold lower affinity at DOR than at MOR” value on δ-opioid receptor (DOR) is recorded as “approximately 4 fold”. The EC50 in series [8] and in series [10] was above 10000 nM throughout. Moreover, in series [8] (setting [11]), the “functional agonist activity at KOR” value was “did not have functional agonist activity”. In addition, the “functional agonist activity at DOR” value in series [10] (setting [11]) was “did not have functional agonist activity”. The “2D6 %Inhibition” value at CYP2D6 (10 µM) came out at 66.8%.

For `Oc1cccc(C23CCCC(C2)N(CC2CC2c2ccccc2)CC3)c1` (single isomer, unassigned; (-)) [(-)-3], the Ki at mu-opioid receptor (MOR) was 4 nM. Besides, in series [1], the “mu-opioid antagonist activity Ke” value is on record as 0.3 nM.

Regarding `Oc1cccc2c1O[C@H]1CN(CCc3ccccc3)[C@H]3CCC[C@@]21C3` [(-)-1, (3S,6aR,11aR)-2-Phenethyl-1,3,4,5,6,11a-hexahydro-2H-3,6a-methano-benzofuro[2,3-c]azocin-10-ol], the IC50 in [4] stood at 409 ± 138 nM; in [6], 102 ± 65.8 nM. Also, the Ki on μ-opioid receptor (MOR) was determined as 1.11 ± 0.15 nM; at κ-opioid receptor (KOR) it was 13 ± 1.2 nM; on δ-opioid receptor (DOR), 34.8 ± 4.4 nM. Also, the “KOR Antagonist %Imax ± SEM” value in [6] amounted to 109.3 ± 8.1%. For the same compound, at κ-opioid receptor (KOR), the “fold lower affinity at KOR than at MOR” value is recorded as “about 10 fold”. Moreover, the “DOR Antagonist %Imax ± SEM” value in [7] is given as 86.5 ± 6.4%. In addition, at δ-opioid receptor (DOR), the “fold lower affinity at DOR than at MOR” value is listed as “approximately 30 fold”. Also, the EC50 in series [8] and in series [10] was above 10000 nM throughout.
